Data from ChEMBL document CHEMBL1149355, “Structure-activity relationships for the linker in a series of pyridinyl-alkynes that are antagonists of the metabotropic glutamate receptor 5 (mGluR5)” (Bioorg Med Chem Lett, 2006).
Active and inactive are the calls of the source. The rule behind the calls is not given here.

Legend:
[1] = target: Metabotropic glutamate receptor 5 (Homo sapiens, UniProt P41594); assay: Activity at human mGluR5d assessed as inhibition of glutamate-induced calcium influx by FLIPR assay; format: functional
[2] = target: Metabotropic glutamate receptor 1 (Homo sapiens) (UniProt Q13255); assay: Activity at human mGluR1 assessed as inhibition of glutamate-induced calcium influx by FLIPR assay; format: functional
[3] = Clearance in dog; format: ADME, organism-based, Canis lupus familiaris; details: in vivo
[4] = Intrinsic clearance in rat liver microsomes; format: ADME, Microsome
[5] = target: Metabotropic glutamate receptor 4 (Homo sapiens) (UniProt Q14833); assay: Activity at human mGluR4 assessed as inhibition of glutamate-induced calcium influx by FLIPR assay; format: functional
[6] = Volume of distribution in dog; format: ADME, organism-based, Canis lupus familiaris; details: in vivo, read-out: Vss
[7] = Half life in dog; format: ADME, organism-based, Canis lupus familiaris; details: in vivo
[8] = target: Metabotropic glutamate receptor 3 (Homo sapiens) (UniProt Q14832); assay: Activity at human mGluR3 assessed as inhibition of glutamate-induced calcium influx by FLIPR assay; format: functional
[9] = system: Canis familiaris; assay: Inhibition of transient lower esophageal sphincter relaxation in dog at 3.9 umol/kg, iv; format: functional, Canis lupus familiaris; parameters: scale not given: the % may be the effect or the level left
[10] = target: Metabotropic glutamate receptor 8 (Homo sapiens) (UniProt O00222); assay: Activity at human mGluR8 assessed as inhibition of glutamate-induced calcium influx by FLIPR assay; format: functional
Metabotropic glutamate receptor 8 (Homo sapiens), sequence (O00222 whole entry): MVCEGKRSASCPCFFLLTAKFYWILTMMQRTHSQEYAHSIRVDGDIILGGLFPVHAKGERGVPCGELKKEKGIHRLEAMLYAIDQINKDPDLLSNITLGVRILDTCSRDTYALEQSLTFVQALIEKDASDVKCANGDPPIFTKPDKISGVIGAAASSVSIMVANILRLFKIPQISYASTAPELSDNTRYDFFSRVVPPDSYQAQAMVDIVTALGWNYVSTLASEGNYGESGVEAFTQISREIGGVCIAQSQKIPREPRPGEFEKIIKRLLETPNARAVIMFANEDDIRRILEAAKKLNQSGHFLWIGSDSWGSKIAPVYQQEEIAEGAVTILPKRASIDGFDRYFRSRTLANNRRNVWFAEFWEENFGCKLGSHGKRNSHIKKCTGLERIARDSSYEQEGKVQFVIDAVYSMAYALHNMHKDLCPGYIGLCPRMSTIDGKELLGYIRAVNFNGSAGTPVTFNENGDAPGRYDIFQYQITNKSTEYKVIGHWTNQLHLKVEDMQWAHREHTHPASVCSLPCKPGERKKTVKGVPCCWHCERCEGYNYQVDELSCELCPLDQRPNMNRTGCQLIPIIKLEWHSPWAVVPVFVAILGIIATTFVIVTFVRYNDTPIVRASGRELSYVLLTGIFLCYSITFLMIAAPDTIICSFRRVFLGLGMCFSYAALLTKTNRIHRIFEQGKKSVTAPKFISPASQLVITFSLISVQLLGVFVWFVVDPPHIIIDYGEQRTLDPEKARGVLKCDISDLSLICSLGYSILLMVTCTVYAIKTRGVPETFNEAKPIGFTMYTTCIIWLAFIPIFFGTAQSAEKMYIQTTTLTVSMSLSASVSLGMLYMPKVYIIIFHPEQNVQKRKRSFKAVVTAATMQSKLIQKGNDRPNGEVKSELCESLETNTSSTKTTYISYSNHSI

Metabotropic glutamate receptor 1 (Homo sapiens), sequence (Q13255 19-1194 limits assumed): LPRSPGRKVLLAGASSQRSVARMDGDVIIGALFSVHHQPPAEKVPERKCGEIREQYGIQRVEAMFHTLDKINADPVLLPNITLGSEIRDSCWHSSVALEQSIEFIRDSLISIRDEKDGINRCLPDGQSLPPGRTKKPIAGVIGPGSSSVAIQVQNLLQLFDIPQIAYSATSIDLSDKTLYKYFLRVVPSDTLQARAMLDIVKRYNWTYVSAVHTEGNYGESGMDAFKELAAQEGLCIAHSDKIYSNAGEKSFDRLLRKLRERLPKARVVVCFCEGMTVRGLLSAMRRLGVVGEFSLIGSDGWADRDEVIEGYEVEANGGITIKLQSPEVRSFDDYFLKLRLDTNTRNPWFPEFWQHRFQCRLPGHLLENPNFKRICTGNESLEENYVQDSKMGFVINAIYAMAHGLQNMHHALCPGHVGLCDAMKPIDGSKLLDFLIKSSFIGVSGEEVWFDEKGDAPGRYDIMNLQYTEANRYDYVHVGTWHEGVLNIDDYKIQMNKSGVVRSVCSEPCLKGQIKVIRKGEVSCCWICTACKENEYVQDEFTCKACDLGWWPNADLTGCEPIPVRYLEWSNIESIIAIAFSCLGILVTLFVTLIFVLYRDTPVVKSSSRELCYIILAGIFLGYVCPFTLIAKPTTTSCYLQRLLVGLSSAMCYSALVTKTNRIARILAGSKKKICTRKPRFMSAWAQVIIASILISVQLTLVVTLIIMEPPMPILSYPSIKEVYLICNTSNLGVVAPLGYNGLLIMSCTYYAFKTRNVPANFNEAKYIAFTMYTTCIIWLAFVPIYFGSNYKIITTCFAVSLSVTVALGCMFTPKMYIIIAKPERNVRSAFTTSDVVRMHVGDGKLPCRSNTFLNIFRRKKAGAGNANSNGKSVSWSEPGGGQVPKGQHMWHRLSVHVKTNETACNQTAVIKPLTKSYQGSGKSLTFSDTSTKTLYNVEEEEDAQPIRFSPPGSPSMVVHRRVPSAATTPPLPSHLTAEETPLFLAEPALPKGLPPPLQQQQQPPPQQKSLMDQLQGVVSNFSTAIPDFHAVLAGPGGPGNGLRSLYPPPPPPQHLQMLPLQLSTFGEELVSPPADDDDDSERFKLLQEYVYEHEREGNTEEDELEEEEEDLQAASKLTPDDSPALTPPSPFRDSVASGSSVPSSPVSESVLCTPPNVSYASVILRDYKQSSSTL
Metabotropic glutamate receptor 5, sequence (P41594 whole entry): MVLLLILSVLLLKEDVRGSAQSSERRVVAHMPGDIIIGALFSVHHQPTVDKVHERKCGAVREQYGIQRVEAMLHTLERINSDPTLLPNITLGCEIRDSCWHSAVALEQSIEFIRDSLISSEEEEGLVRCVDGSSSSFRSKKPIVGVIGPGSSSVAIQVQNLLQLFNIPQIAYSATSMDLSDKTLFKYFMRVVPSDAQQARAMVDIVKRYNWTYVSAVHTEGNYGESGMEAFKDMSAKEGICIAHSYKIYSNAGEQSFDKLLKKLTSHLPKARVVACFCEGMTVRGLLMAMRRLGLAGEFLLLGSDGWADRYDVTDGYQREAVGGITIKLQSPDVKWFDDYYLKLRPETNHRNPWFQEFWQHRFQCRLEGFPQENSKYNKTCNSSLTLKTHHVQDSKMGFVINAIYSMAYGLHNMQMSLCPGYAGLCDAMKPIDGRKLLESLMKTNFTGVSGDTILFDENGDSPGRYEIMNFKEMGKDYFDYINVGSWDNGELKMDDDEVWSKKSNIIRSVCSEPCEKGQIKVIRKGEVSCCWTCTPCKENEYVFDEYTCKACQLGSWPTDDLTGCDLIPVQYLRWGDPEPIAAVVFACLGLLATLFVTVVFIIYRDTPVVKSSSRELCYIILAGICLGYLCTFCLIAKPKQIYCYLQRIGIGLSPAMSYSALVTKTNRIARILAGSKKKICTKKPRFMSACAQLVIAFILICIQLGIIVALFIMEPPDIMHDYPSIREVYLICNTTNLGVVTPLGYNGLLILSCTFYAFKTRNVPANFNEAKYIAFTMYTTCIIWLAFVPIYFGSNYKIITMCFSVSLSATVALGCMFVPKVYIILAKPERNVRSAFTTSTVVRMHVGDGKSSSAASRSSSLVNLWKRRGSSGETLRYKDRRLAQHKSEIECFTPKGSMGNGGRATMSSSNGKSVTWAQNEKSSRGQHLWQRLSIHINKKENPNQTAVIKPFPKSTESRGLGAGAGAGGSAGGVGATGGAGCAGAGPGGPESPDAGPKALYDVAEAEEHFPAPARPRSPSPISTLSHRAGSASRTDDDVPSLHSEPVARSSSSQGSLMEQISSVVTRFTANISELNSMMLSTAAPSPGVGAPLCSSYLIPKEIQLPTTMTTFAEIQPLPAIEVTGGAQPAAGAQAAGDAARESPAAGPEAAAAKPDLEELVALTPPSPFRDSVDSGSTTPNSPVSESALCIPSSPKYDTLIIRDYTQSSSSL
Metabotropic glutamate receptor 4 (Homo sapiens), sequence (Q14833 whole entry): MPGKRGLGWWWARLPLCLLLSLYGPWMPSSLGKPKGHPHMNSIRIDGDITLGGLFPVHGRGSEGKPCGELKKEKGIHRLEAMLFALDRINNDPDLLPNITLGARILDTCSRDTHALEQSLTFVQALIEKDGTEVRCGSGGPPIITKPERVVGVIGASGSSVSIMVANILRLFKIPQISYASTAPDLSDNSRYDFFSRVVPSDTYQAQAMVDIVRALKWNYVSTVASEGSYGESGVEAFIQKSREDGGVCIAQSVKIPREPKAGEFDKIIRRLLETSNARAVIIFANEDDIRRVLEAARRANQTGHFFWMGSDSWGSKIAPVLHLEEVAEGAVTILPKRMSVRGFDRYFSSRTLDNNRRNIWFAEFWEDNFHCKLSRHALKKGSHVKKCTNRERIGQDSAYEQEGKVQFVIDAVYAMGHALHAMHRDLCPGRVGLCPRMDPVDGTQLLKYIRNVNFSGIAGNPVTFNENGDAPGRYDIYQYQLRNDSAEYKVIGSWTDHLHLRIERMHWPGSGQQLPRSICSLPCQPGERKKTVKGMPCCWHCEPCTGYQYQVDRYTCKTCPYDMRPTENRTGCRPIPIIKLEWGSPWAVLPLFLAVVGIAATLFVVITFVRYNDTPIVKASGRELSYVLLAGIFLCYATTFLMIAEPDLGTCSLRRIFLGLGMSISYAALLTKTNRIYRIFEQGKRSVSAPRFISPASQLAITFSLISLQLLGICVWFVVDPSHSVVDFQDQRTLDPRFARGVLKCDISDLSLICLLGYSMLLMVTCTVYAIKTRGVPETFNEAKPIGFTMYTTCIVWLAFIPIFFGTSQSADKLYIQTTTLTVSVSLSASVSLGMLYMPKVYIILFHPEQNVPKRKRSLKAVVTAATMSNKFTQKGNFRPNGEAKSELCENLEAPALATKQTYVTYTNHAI
Metabotropic glutamate receptor 3 (Homo sapiens), sequence (Q14832 23-879 limits assumed): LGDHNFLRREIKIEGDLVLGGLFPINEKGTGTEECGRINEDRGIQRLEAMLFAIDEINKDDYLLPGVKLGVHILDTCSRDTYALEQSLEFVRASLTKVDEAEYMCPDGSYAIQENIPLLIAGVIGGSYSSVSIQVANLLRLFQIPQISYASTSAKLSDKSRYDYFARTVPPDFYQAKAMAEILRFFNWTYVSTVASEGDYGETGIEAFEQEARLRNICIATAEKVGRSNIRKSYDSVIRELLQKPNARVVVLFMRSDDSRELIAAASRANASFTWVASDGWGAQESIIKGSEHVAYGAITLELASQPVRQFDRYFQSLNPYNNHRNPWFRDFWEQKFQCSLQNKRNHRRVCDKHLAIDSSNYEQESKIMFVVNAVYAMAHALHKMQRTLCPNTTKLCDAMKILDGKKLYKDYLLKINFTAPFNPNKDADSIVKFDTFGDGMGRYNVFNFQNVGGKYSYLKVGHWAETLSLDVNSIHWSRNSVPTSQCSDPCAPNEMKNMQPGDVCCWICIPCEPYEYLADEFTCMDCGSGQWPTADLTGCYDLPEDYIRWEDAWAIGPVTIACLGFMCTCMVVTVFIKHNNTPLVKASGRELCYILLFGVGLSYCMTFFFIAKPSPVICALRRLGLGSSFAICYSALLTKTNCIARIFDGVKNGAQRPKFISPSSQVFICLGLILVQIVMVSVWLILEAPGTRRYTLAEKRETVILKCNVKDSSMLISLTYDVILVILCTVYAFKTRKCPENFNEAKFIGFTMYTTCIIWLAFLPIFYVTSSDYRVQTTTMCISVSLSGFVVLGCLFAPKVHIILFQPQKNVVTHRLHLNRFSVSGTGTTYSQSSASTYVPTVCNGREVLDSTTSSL

Row | Structure (SMILES) | IC50 [1] [nM] | Activity [2] | further results
1 | Cc1cccc(C#CC[S+]([O-])c2ccccc2)n1 (configuration not stated) | > 10000 | – | –
2 | CCC(C#Cc1cccc(C)n1)Sc1cccc(Cl)c1 (configuration not stated) | 862 | – | –
3 | Cc1cccc(C#CCCCc2ccccc2)n1 | 258 | – | –
4 | Cc1cccc(C#CCNC(=O)c2cccc(Cl)c2)n1 | 2610 | – | –
5 | Cc1cccc(C#CCNc2ccccc2)n1 | 223 | – | –
6 | Cc1cccc(C#CC(C)Sc2cccc(Cl)c2)n1 (configuration not stated) | 118 | inactive | –
7 | Cc1cccc(C#CCN(C)c2ccccc2)n1 | 6730 | – | –
8 | Cc1cccc(C#CC(=O)Nc2ccccc2)n1 | > 10000 | – | –
9 | Cc1cccc(C#CCCc2cccc(Cl)c2)n1 | 5 | inactive | clearance [3]: 66 mL/min/kg; microsomal CLint [4]: 197 µL/min/mg; Activity [5]: inactive; Vd [6]: 3.2 L/kg; half-life [7]: 2 h; Activity [8]: inactive; Activity [9]: 31%; Activity [10]: inactive
10 | Cc1cccc(C#CCOc2cccc(Cl)c2)n1 | – | inactive | –
11 | Cc1cccc(C#CCCc2ccccc2)n1 | 78 | – | Activity [5]: inactive; Activity [8]: inactive; Activity [10]: inactive
12 | Cc1cccc(C#CCNC(=O)Nc2cccc(Cl)c2)n1 | > 10000 | – | –
13 | Cc1cccc(C#CCNc2cccc(Cl)c2)n1 | 174 | inactive | –
14 | Cc1cccc(C#CC(C)Nc2cccc(Cl)c2)n1 (configuration not stated) | 709 | inactive | –
15 | Cc1cccc(C#CC(C)Oc2cccc(Cl)c2)n1 (configuration not stated) | 281 | inactive | –
16 | Cc1cccc(C#CC(Sc2cccc(Cl)c2)C(C)C)n1 (configuration not stated) | 461 | – | –
17 | Cc1cccc(C#CCSc2ccccc2)n1 | 589 | – | –
18 | Cc1cccc(C#Cc2cc3ccccc3s2)n1 | 306 | – | –
19 | Cc1cccc(C#CCSc2cccc(Cl)c2)n1 | 43 | inactive | –
20 | Cc1cccc(C#CCC(C)c2ccccc2)n1 (configuration not stated) | 59 | – | –
